Data as given in PubChem BioAssay (NCI).
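The compound was tested at five concentrations on cells cultured in 96-well plates, with a 48-hour exposure period. GI50 marks 50% less growth. The concentration for full growth arrest is given as TGI.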

Legend:
Assay in all cases: DTP human tumour cell line panel, 48 h
[1] = test system: 786-0 renal
[2] = test system: A498 renal
[3] = test system: A549 NSCLC
[4] = test system: ACHN renal
[5] = test system: BT-549 breast
[6] = test system: CAKI-1 renal
[7] = test system: CCRF-CEM leukemia
[8] = test system: COLO 205 colon
[9] = test system: DU-145 prostate
[10] = test system: EKVX NSCLC
[11] = test system: HCC-2998 colon
[12] = test system: HCT-116 colon
[13] = test system: HCT-15 colon
[14] = test system: HL-60(TB) leukemia
[15] = test system: HOP-62 NSCLC
[16] = test system: HOP-92 NSCLC
[17] = test system: HS 578T breast
[18] = test system: HT29 colon
[19] = test system: IGROV1 ovarian
[20] = test system: K-562 leukemia
[21] = test system: KM12 colon
[22] = test system: LOX IMVI melanoma
[23] = test system: M14 melanoma
[24] = test system: MALME-3M melanoma
[25] = test system: MCF7 breast
[26] = test system: MDA-MB-231 breast
[27] = test system: MDA-MB-435
[28] = test system: MDA-MB-468 breast
[29] = test system: MOLT-4 leukemia

Structure (SMILES): Cc1ccc(C(=O)CSc2nc3ccc(F)cc3c(=O)n2-c2ccc(Cl)cc2)cc1
- GI50 [1]: 11.1 µM
- TGI [1]: > 100 µM
- GI50 [2]: > 100 µM
- TGI [2]: > 100 µM
- GI50 [3]: > 100 µM
- TGI [3]: > 100 µM
- GI50 [4]: 6.83 µM
- TGI [4]: > 100 µM
- GI50 [5]: 11.2 µM
- TGI [5]: > 100 µM
- GI50 [6]: 4.49 µM
- TGI [6]: 44.5 µM
- GI50 [7]: > 100 µM
- TGI [7]: > 100 µM
- GI50 [8]: > 100 µM
- TGI [8]: > 100 µM
- GI50 [9]: 59.5 µM
- TGI [9]: > 100 µM
- GI50 [10]: > 100 µM
- TGI [10]: > 100 µM
- GI50 [11]: > 100 µM
- TGI [11]: > 100 µM
- GI50 [12]: > 100 µM
- TGI [12]: > 100 µM
- GI50 [13]: > 100 µM
- TGI [13]: > 100 µM
- GI50 [14]: > 100 µM
- TGI [14]: > 100 µM
- GI50 [15]: 3.95 µM
- TGI [15]: 50.4 µM
- GI50 [16]: 5 µM
- TGI [16]: 57.5 µM
- GI50 [17]: 3.41 µM
- TGI [17]: 86.2 µM
- GI50 [18]: > 100 µM
- TGI [18]: > 100 µM
- GI50 [19]: 27.1 µM
- TGI [19]: > 100 µM
- GI50 [20]: > 100 µM
- TGI [20]: > 100 µM
- GI50 [21]: > 100 µM
- TGI [21]: > 100 µM
- GI50 [22]: 4.04 µM
- TGI [22]: > 100 µM
- GI50 [23]: > 100 µM
- TGI [23]: > 100 µM
- GI50 [24]: 66.7 µM
- TGI [24]: > 100 µM
- GI50 [25]: > 100 µM
- TGI [25]: > 100 µM
- GI50 [26]: 15.1 µM
- TGI [26]: > 100 µM
- GI50 [27]: > 100 µM
- TGI [27]: > 100 µM
- GI50 [28]: 82.9 µM
- TGI [28]: > 100 µM
- GI50 [29]: > 100 µM
